Our source for the IC50 values is patent US6706709B2, “Indolinone derivatives as protein kinase/phosphatase inhibitors” (Sugen, Inc., priority 2000, dated 2004).

For one test, the target named is GST-Flk1 (UniProt P35918). Put plainly: GST-FLK-1 bioassay (bio flkGST). The format is biochemical. Here is the method:
This assay analyzes the tyrosine kinase activity of GST-Flk1 on poly glu tyr peptides.
2. poly glu tyr 4:1, lyophilizate (Sigma Catalog # P0275). Prepare 1 mg/mL poly glu tyr in sterile PBS and store in 1 ml aliquots at −20° C.
3. Preparation of poly glu tyr (pEY) coated assay plates: Coat 2 μg/well of poly glu tyr (pEY) in 100 μL PBS at room temperature for 2 hours or at +4° C. overnight. Cover plates well to prevent evaporation.
4. PBS Buffer: To make 1 liter of a 1× working solution, mix […], 1.15 g NA2HPO4, 0.2 g KCl and 8 g NaCl in approx. 900 mL dH2O. When all reagents have dissolved, adjust the pH to 7.2 with HCl. Bring total volume to 1L with dH2O.
5. PBS-Tw Buffer: To 1L of PBS Buffer, add […] Tween-20. Stir until dissolved.
6. TBB-Blocking Buffer: To make one liter of a 1× working solution, mix 1.21 g TRIS, 8.77 g NaCl, 1 mL TWEEN-20 in approximately 900 mL dH2O. Adjust pH to 7.2 with HCl. Add 10 g BSA, stir to dissolve. Bring total volume to 1 L with dH2O. Filter to remove particulate matter.
7. 1% BSA in PBS: To make a 1× working solution, add 10 g BSA to approx. 990 mL PBS buffer, stir to dissolve. Adjust total volume to 1 L with PBS buffer, filter to remove particulate matter.
9. GST-Flk1cd purified from sf9 recombinant baculovirus transformation.
13. Kinase Dilution Buffer (KDB): Mix 10 mL Hepes (pH 7.5), 1 mL of 5 M NaCl, 40 μL of 100 mM NaVO4 and 0.4 mL of 5% BSA in dH2O with 88.56 mL of dH2O.
14. NUNC-96-well V bottom polypropylene plates Applied Scientific Catalog # AS-72092
15. EDTA: Mix 14.12 g ethylenediaminetetraacetic acid (EDTA) to approx. 70 mL dH2O. Add 10N NaOH until EDTA dissolves. Adjust pH to 8.0. Adjust total volume to 100 mL with dH2O.
16. 1° Antibody Dilution Buffer: Mix 10 mL of 5% BSA in PBS buffer with 89.5 mL TBSTw.
17. Anti-phosphotyrosine monoclonal conjugated to horseradish peroxidase (PY99 HRP, Santa Cruz Biotech).
18. 2,2′-Azino-bis(3-ethylbenzthiazoline-6-sulfonic acid (ABTS, Moss, Cat. No. ABST).
1. Coat Corning 96 well ELISA plates with 2 μg of polyEY peptide in sterile PBS as described in step 3 of Materials and Reagents.
2. Remove unbound liquid from wells by inverting plate. Wash once with TBSTw. Pat the plate on a paper towel to remove excess liquid.
3. Add 100 μL of 1% BSA in PBS to each well. Incubate, with shaking, for 1 hr. at room temperature.
5. Soak wells with 50 mM Hepes pH7.5 (150 μL/well).
6. Dilute test compound with dH2O/4% DMSO to 4 times the desired final assay concentration in 96-well polypropylene plates.
7. Add 25 μL diluted test compound to ELISA plate.
8. Add 25 μL of 40 mM MnCl2 with 4×ATP (2 μM) to all wells.
9. Add 25 μL 0.5 M EDTA to negative control wells.
10. Dilute GST-Flk1 0.005 μg (5 ng)/well in KDB. For 50 ml KDB add 100 μL of 0.050 mg/mL GST-Flk1 enzyme.
11. Add 50 μL of diluted enzyme to each well.
12. Incubate, with shaking, for 15 minutes at room temperature.
13. Stop reaction by adding 50 μL of 250 mM EDTA (pH 8.0).
14. Wash 3× with TBSTw and pat plate on paper towel to remove excess liquid.
15. Add 100 μL per well anti-phosphotyrosine HRP conjugate, 1:5,000 dilution in antibody dilution buffer. Incubate, with shaking for 90 min. at room temperature.
16. Wash as described above in step 14.
17. Add 100 μL of room temperature ABTS solution to each well.
18. Incubate, with shaking, for 10 to 15 minutes. Remove any bubbles.
19. Stop reaction by adding 20 μL of 10% SDS.
20. Read assay on Dynatech MR7000 ELISA reader: test filter at 410 nM; reference filter at 630 nM.

The next test has as its target T1, EGF Receptor (Homo sapiens, UniProt P00533).
T1 construct: expressed in transfected cells; host or cells: NIH 3T3/C7 (mouse fibroblasts engineered to express human EGF-R)
Put plainly: bio EGF (EGF Receptor ELISA). It is filed as biochemical. The method, then:
EGF Receptor kinase activity in cells genetically engineered to express human EGF-R was measured as described below:
The following materials and reagents were used:
b. 05-101 (UBI) (a monoclonal antibody recognizing an EGFR extracellular domain).
c. Anti-phosphotyrosine antibody (anti-Ptyr) (polyclonal).
d. Detection antibody: Goat anti-rabbit lgG horse radish peroxidase conjugate, TAGO, Inc., Burlingame, Calif.
Keep solution in dark at 4° C. until used.
The following protocol was used:
1. […] Coated plates are good for up to 10 days when stored at 4° C.
2. On day of use, remove coating buffer and replace with blocking buffer (5% Carnation Instant Non-Fat Dry Milk in PBS). Incubate the plate, shaking, at room temperature (about 23° C. to 25° C.) for 30 minutes. Just prior to use, remove blocking buffer and wash plate 4 times with TBST buffer.
2. Choose dishes having 80-90% confluence for the experiment. Trypsinize cells and stop reaction by adding 10% CS DMEM medium. Suspend cells in DMEM medium (10% CS DMEM medium) and centrifuge once at 1000 rpm at room temperature for 5 minutes.
3. Resuspend cells in seeding medium (DMEM, 0.5% bovine serum), and count the cells using trypan blue. Viability above 90% is acceptable. Seed cells in DMEM medium (0.5% bovine serum) at a density of 10,000 cells per well, 100 μL per well, in a 96 well microtiter plate. Incubate seeded cells in 5% CO2 at 37° C. for about 40 hours.
1. Check seeded cells for contamination using an inverted microscope. Dilute drug stock (10 mg/ml in DMSO) 1:10 in DMEM medium, then transfer 5 μL to a test well for a final drug dilution of 1:200 and a final DMSO concentration of 1%. Control wells receive DMSO alone. Incubate in 5% CO2 at 37° C. for one hour.
2. Prepare EGF ligand: dilute stock EGF in DMEM so that upon transfer of 10 μL dilute EGF (1:12 dilution), 25 nM final concentration is attained.
3. Prepare fresh 10 ml HNTG* sufficient for 100 μL per well wherein HNTG* comprises: HNTG stock (2.0 mL), milli-Q H2O (7.3 mL), EDTA, 100 mM, pH 7.0 (0.5 mL), Na3VO4 0.5 M (0.1 mL) and Na4(P2O7), 0.2 M (0.1 mL).
5. After two hours incubation with drug, add prepared EGF ligand to cells, 10 μL per well, to yield a final concentration of 25 nM. Control wells receive DMEM alone. Incubate, shaking, at room temperature, for 5 minutes.
6. Remove drug, EGF, and DMEM. Wash cells twice with PBS. Transfer HNTG* to cells, 100 μL per well. Place on ice for 5 minutes. Meanwhile, remove blocking buffer from other ELISA plate and wash with TBST as described above.
7. With a pipette tip securely fitted to a micropipettor, scrape cells from plate and homogenize cell material by repeatedly aspirating and dispensing the HNTG* lysis buffer. Transfer lysate to a coated, blocked, and washed ELISA plate. Incubate shaking at room temperature for one hour.
8. Remove lysate and wash 4 times with TBST. Transfer freshly diluted anti-Ptyr antibody to ELISA plate at 100 μL per well. Incubate shaking at room temperature for 30 minutes in the presence of the anti-Ptyr antiserum (1:3000 dilution in TBST).
9. Remove the anti-Ptyr antibody and wash 4 times with TBST. Transfer the freshly diluted TAGO 30 anti-rabbit IgG antibody to the ELISA plate at 100 μL per well. Incubate shaking at room temperature for 30 minutes (anti-rabbit IgG antibody: 1:3000 dilution in TBST).
10. Remove detection antibody and wash 4 times with TBST. Transfer freshly prepared ABTS/H2O2 solution to ELISA plate, 100 μL per well. Incubate at room temperature for 20 minutes. ABTS/H2O2 solution: 1.2 μL 30% H2O2in 10 mL ABTS stock.
11. Stop reaction by adding 50 μL 5N H2SO4 (optional), and determine O.D. at 410 nm.
12. The maximal phosphotyrosine signal is determined by subtracting the value of the negative controls from the positive controls. The percent inhibition of phosphotyrosine content for extract-containing wells is then calculated, after subtraction of the negative controls.

The structures appear in SMILES notation.

T1 sequence (P00533 25-1210): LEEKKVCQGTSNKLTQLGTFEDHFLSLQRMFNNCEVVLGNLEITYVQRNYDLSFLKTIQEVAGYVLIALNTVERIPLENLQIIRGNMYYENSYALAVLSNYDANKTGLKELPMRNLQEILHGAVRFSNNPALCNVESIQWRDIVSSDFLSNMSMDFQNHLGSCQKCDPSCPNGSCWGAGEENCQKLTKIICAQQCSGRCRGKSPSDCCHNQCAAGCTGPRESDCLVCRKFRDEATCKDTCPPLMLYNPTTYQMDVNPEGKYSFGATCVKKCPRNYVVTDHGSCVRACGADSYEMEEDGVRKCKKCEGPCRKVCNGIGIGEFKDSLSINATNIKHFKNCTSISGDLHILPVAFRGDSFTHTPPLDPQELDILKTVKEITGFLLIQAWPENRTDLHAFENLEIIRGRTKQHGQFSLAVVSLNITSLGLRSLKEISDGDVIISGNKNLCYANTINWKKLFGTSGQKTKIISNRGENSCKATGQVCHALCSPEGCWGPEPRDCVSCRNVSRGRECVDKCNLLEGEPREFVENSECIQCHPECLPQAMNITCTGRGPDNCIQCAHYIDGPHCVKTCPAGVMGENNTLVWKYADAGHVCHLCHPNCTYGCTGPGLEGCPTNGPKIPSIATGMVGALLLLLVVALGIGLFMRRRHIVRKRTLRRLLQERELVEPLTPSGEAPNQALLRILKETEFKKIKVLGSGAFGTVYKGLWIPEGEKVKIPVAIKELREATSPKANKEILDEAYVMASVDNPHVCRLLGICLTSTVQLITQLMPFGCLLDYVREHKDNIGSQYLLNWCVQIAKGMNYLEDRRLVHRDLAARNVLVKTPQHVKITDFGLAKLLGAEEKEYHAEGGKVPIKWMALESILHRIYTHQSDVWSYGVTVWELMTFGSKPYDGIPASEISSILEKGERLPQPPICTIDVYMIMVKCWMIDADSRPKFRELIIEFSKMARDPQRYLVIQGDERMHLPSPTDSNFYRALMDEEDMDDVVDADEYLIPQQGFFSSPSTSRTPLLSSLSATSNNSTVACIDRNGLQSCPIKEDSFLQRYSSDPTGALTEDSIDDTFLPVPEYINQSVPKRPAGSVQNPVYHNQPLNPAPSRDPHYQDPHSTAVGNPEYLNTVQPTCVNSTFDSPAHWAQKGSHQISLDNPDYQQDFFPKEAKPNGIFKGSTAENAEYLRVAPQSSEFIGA

Turning to `O=C1Nc2ccc(S(=O)(=O)N3CCc4ccccc43)cc2C1=Cc1cc2cc(OCCN3CCOCC3)ccc2[nH]1` [IN-058, 5-(2,3-dihydro-indole-1-sulfonyl)-3-[5-(2-morpholin-4-yl-ethoxy)-1H-indol-2-ylmethylene]-1,3-dihydro-indol-2-one], the IC50 against GST-Flk1 is 8.49 µM; at EGF Receptor it was > 20 µM. Taken in the same sequence, the figures for `O=C1Nc2cccc(CCO)c2C1=Cc1cc2cc(OCCN3CCCC3)ccc2[nH]1` [IN-024, 4-(2-hydroxy-ethyl)-3-[5-(2-pyrrolidin-1-yl-ethoxy)-1H-indol-2-ylmethylene]-1,3-dihydro-indol-2-one] were < 0.01 µM and > 20 µM. As for `COc1cccc(-c2ccc3c(c2)NC(=O)C3=Cc2cc3cc(OCCN4CCOCC4)ccc3[nH]2)c1` [IN-036, 6-(3-methoxy-phenyl)-3-[5-(2-morpholin-4-yl-ethoxy)-1H-indol-2-ylmethylene]-1,3-dihydro-indol-2-one], the IC50 at GST-Flk1 and on EGF Receptor was > 20 µM each time.

For the molecule `NS(=O)(=O)c1ccc2c(c1)C(=Cc1ccc3[nH]ccc3c1)C(=O)N2` [IN-067, 3-(1H-indol-5-ylmethylene)-2-oxo-2,3-dihydro-1H-indole-5-sulfonic acid amide], the values for the IC50 against GST-Flk1 and at EGF Receptor were 3.99 µM and > 100 µM, respectively.

As for `O=C1Nc2cc(C(=O)O)ccc2C1=Cc1cc2cc(OCCN3CCCC3)ccc2[nH]1` [IN-023, 2-oxo-3-[5-(2-pyrrolidin-1-yl-ethoxy)-1H-indol-2-ylmethylene]-2,3-dihydro-1H-indole-6-carboxylic acid], the IC50 on GST-Flk1 is 0.24 µM; against EGF Receptor, > 20 µM. Taken in the same sequence, the figures for `O=C1Nc2ccc(S(=O)(=O)Nc3cccc(Cl)c3)cc2C1=Cc1cc2cc(OCCN3CCCC3)ccc2[nH]1` [IN-047, 2-oxo-3-[5-(2-pyrrolidin-1-yl-ethoxy)-1H-indol-2-ylmethylene]-2,3-dihydro-1H-indole-5-sulfonic acid (3-chloro-phenyl)-amide] were 0.39 µM and 0.87 µM.

With `O=C1Nc2cc(-c3ccccc3)ccc2C1=Cc1cc2cc(OCCN3CCCC3)ccc2[nH]1` [IN-015, 6-phenyl-3-[5-(2-pyrrolidin-1-yl-ethoxy)-1H-indol-2-ylmethylene]-1,3-dihydro-indol-2-one], the 50% inhibitory concentration (IC50) at GST-Flk1 is 0.99 µM; against EGF Receptor it was 70.6 µM. Take `Cc1[nH]c2ccccc2c1C=C1C(=O)Nc2ccc(S(N)(=O)=O)cc21` [IN-066, 3-(2-methyl-1H-indol-3-ylmethylene)-2-oxo-2,3-dihydro-1H-indole-5-sulfonic acid amide]: the IC50 at GST-Flk1 was > 20 µM; on EGF Receptor it was > 100 µM. For the molecule `O=C1Nc2ccc(S(=O)(=O)Nc3cccnc3)cc2C1=Cc1cc2cc(OCCN3CCOCC3)ccc2[nH]1` [IN-057, 3-[5-(2-morpholin-4-yl-ethoxy)-1H-indol-2-ylmethylene]-2-oxo-2,3-dihydro-1H-indole-5-sulfonic acid pyridin-3-ylamide], the IC50 on GST-Flk1 and against EGF Receptor was > 20 µM each time. With `CCN(CC)CCOc1ccc2[nH]c(C=C3C(=O)Nc4cc(-c5ccccc5)ccc43)cc2c1` [IN-018, 3-[5-(2-diethylamino-ethoxy)-1H-indol-2-ylmethylene]-6-phenyl-1,3-dihydro-indol-2-one], the values for the IC50 against GST-Flk1 and against EGF Receptor were 5.41 µM and > 100 µM, respectively. For `COc1ccc(-c2ccc3c(c2)NC(=O)C3=Cc2cc3cc(OCCN4CCCC4)ccc3[nH]2)cc1` [IN-026, 6-(4-methoxy-phenyl)-3-[5-(2-pyrrolidin-1-yl-ethoxy)-1H-indol-2-ylmethylene]-1,3-dihydro-indol-2-one] the same measures were 0.76 µM and > 20 µM. Taken in the same sequence, the figures for `COc1ccccc1-c1ccc2c(c1)NC(=O)C2=Cc1cc2cc(OCCN3CCCC3)ccc2[nH]1` [IN-028, 6-(2-methoxy-phenyl)-3-[5-(2-pyrrolidin-1-yl-ethoxy)-1H-indol-2-ylmethylene]-1,3-dihydro-indol-2-one] were 0.66 µM and 6.06 µM. At GST-Flk1, `NS(=O)(=O)c1ccc2c(c1)C(=Cc1c[nH]c3ccccc13)C(=O)N2` [IN-065, 3-(1H-indol-3-ylmethylene)-2-oxo-2,3-dihydro-1H-indole-5-sulfonic acid amide] yielded an IC50 of 11.7 µM.
